pEC50: −log10 of the molar value.
Key:
Plasmodium falciparum [1] = assay: ST_JUDE: Plasmodium falciparum 3D7 EC50 (uM) as measured by SYBR green dye; type: functional, organism-based
Plasmodium falciparum [2] = assay: ST_JUDE: Plasmodium falciparum K1 EC50 (uM) as measured by SYBR green dye; type: functional, organism-based

Structure (SMILES)	pEC50 (Plasmodium falciparum [1])	pEC50 (Plasmodium falciparum [2])
O=C(N1CCCC1)C12CC3CC(CC(C3)C1)C2	5.09	5.12
CC(=O)NC(c1cccs1)c1cc(Cl)c2cccnc2c1O (centres undefined)	< 4.82	5.23
CC(C)=CCN1CCC(C(=O)Nc2ccc(-c3nc4ccccc4[nH]3)cc2)CC1	5.87	5.17
CCOc1ccc(C2N(C)c3ccccc3N2C)cc1	< 4.82	< 4.82
Nc1ccc(-c2nc3cc(Oc4ccc5[nH]c(-c6ccc(N)cc6)nc5c4)ccc3[nH]2)cc1	5.83	5.77
CCOC(=O)c1cnc2ccc(OC)cc2c1Nc1ccc(N2CCN(C)CC2)cc1	6.24	5.89
CCN1C=CC(=Cc2ccc3cc(C)ccc3[n+]2C)C=C1	6.58	6.98
O=C(CN1CCN(C2CCCC2)CC1)Nc1ccc([N+](=O)[O-])cc1C(=O)Nc1ccccc1F	< 4.82	< 4.82
CCc1c(C)c2cc3c(c(C)c2oc1=O)OCN(CCc1ccc(OC)cc1)C3	< 4.82	6.29
Cc1ccc(C)c(Oc2c(C(F)(F)F)oc3c(CN4CCN(Cc5ccccc5)CC4)c(O)ccc3c2=O)c1	6.21	6.56
CCCOc1cccc(C2c3c(-c4ccccc4O)n[nH]c3C(=O)N2CCCOCC)c1 (centres undefined)	< 4.82	5.11
CCCOc1ccc(C(NC(=O)CCl)NC(=O)CCl)cc1OC	5.40	5.43
Cc1ccc(C(=O)N2CCc3ccccc32)cc1Br	< 4.82	< 4.82
C[n+]1ccc(/C=C/c2ccc3c(c2)OCO3)cc1	5.46	5.62
Cc1ccc(S(=O)(=O)Nc2ccc(Nc3nc(C)cc(N4CCCC4)n3)cc2)cc1	6.04	5.14
CCCCOc1ccc(C(=O)Nc2ccccc2Oc2ccccc2)cc1	< 4.82	5.76
COc1cccc(NC2=C(N3CCCCC3)C(=O)c3ccccc3C2=O)c1	7.28	6.81
CCN(CC)S(=O)(=O)c1ccc(C(=O)Nc2nc(-c3ccccc3OC)cs2)cc1	< 4.82	< 4.82
Oc1c(C(Nc2ccccn2)c2cccc(OC3CCCC3)c2)ccc2cccnc12 (centres undefined)	5.43	5.38
Cc1ccnc(NC(c2ccccc2F)c2ccc3cccnc3c2O)c1 (centres undefined)	5.73	5.82
CCCCN(C)S(=O)(=O)c1ccc(C(=O)N(Cc2ccccn2)c2nc3ccccc3s2)cc1	< 4.82	< 4.82
COc1cccc(OC)c1CN1CCC(C(Cc2ccccc2F)N(C)C(=O)c2cccs2)CC1 (centres undefined)	5.14	5.37

Structure (SMILES)	pEC50 (Plasmodium falciparum [1])	pEC50 (Plasmodium falciparum [2])
COc1ccc(Nc2cc(C)nc(N3CCN(C(=O)c4ccccc4C(F)(F)F)CC3)n2)cc1	5.45	5.81
COC(=O)c1sc2ccccc2c1NC(=O)c1cccc(Br)c1	< 4.82	< 4.82
CCOC(=O)C1=C(CN(C)c2ccc(F)cc2)NC(=O)NC1c1ccc(Cl)cc1 (centres undefined)	< 4.82	5.20
Cc1ccc2c(c1)c(-c1ccccc1)c(-c1ccccc1)n2CC(O)CNCCc1ccccc1 (centres undefined)	5.85	6.22
CCOc1cc2c(cc1OCC)C(c1cc(Cl)c(O)c(OCC)c1)NCC2 (centres undefined)	5.52	5.76
C#CCN(CC=C)Cc1nc(-c2cc(OC)ccc2OC)oc1C	< 4.82	< 4.82
CCCCCCCOC(=O)c1[nH]c2c(c1C)C(=O)CC(c1ccco1)C2 (centres undefined)	5.70	5.92
O=C(Nc1ccc(N2CCCCC2)c(Cl)c1)c1ccc(F)cc1	< 4.82	6.10
Cc1ccc(C)c(NC(=O)CSc2ccc(Cl)cc2)c1	< 4.82	< 4.82
CC1(C)Cc2ccccc2C(NCC(=O)O)=N1	< 4.82	< 4.82
CC(C(=O)c1ccc(-c2ccccc2)cc1)[n+]1ccccc1 (centres undefined)	5.15	5.40
CCOc1ccc(CCNC(=O)Nc2cc(C(F)(F)F)cc(C(F)(F)F)c2)cc1OC	5.55	5.25
Cc1cccc(-c2c3c(=O)n(C)c(=O)n(C)c3cn2-c2cc(Cl)ccc2O)c1	< 4.82	< 4.82
CCOc1ccc(-c2nonc2NC(=O)c2ccc(C)cc2)cc1OCC	< 4.82	< 4.82
O=C(Nc1cccc(C2=NCCN2)c1)Nc1cccc(C2=NCCN2)c1	5.72	6.64
CCN(C(=O)Nc1ccccc1OC)c1nc(-c2ccccc2)cs1	< 4.82	< 4.82
CC(=O)Oc1ccc2ccccc2c1C(NC(=O)C(C)C)c1ccc(Cl)cc1 (centres undefined)	5.39	5.35
Cc1ccc(C(=O)Nc2ccc3c(c2)N(S(=O)(=O)c2ccc(F)cc2)CCC3)cc1	< 4.82	< 4.82
CCOC(=O)c1cnc2c(C(F)(F)F)cccc2c1Nc1cc(C)ccc1O	5.60	5.51
Cc1ccc(Nc2nc(N/N=C/c3ccc(/C=N/Nc4nc(Nc5ccc(C)cc5)nc(N5CCOCC5)n4)cc3)nc(N3CCOCC3)n2)cc1	5.80	5.84
Cn1c2c(c(=N)c3c1CCC3)CCCC2	5.62	5.24
COc1ccccc1CCN1COc2c(cc3c(C)c(C)c(=O)oc3c2C)C1	5.82	6.31

Structure (SMILES)	pEC50 (Plasmodium falciparum [1])	pEC50 (Plasmodium falciparum [2])
CC(=O)Oc1ccccc1C(=O)Nc1cccc(C(F)(F)F)c1	5.57	5.57
O=C1c2ccc3c4c(ccc(c24)C(=O)N1CCO)C(=O)N(CCO)C3=O	< 4.82	5.57
CCCCN(C)C(=O)C1c2ccccc2C(=O)N(CC(C)C)C1c1cccs1 (centres undefined)	5.82	5.76
COc1ccc(Cl)cc1NC(=S)N1CCN(c2ccc(C#N)cc2)CC1	6.07	5.89
COCc1cc(CN2CCN(c3cccc(C(F)(F)F)c3)CC2)c(O)c2ncccc12	5.74	5.65
CCc1ccc(NC(=O)C2c3ccccc3C(=O)N(C3CCCC3)C2c2cccs2)cc1 (centres undefined)	5.74	5.73
C[n+]1ccccc1/C=C/c1ccc(O)cc1	5.50	5.48
CC[n+]1cccc(-c2nc3ccccc3s2)c1	5.12	5.23
CCN1CCN(c2cc(C)c3cc(NC(=S)NCc4cc(OC)ccc4OC)ccc3n2)CC1	5.51	5.05
COc1ccc(-c2nnc3c4ccccc4c(C)nn23)cc1S(=O)(=O)N1CCCCC1	< 4.82	< 4.82
Cc1ccc(Nc2cc(C)nc(Nc3ccc(NS(=O)(=O)c4ccc(Cl)cc4)cc3)n2)cc1	6.36	< 4.82
CCOc1ccc2c(c1)CN(Cc1ccc(Cl)cc1)CO2	5.83	6.55
CC(C)c1ccccc1Oc1c(C(F)(F)F)oc2c(CN3CCCC3)c(O)ccc2c1=O	5.80	6.00
COc1ccc(Nc2nc(NCc3ccccc3)c3ccccc3n2)cc1	5.88	5.13
CCOc1ccc(CCNC(=O)Nc2ccc(F)cc2)cc1OCC	5.35	< 4.82
CCOc1c(Br)cc(C2C(C(=O)OC)=CN(C(C)C)C=C2C(=O)OC)cc1OC	5.40	5.46
CCOc1ccc(Nc2cc(C)nc(-n3nc(C)cc3C)n2)cc1	5.30	5.30
Cc1cc(Nc2ccc(C(C)C)cc2)n2ncnc2n1	6.30	6.02
CCc1c(C)nc(-n2nc(C)cc2NC(=O)c2ccccc2F)nc1O	< 4.82	< 4.82
O=C(Nc1cc(OCC(F)(F)F)cc(OCC(F)(F)C(F)F)c1)c1cccnc1	5.42	5.35
CSc1cccc(NC(=O)N2CCC(CO)(Cc3ccccc3Cl)CC2)c1	< 4.82	< 4.82
Oc1ccc(Cl)cc1Nc1ncnc2ccc(Br)cc12	< 4.82	5.41

Structure (SMILES)	pEC50 (Plasmodium falciparum [1])	pEC50 (Plasmodium falciparum [2])
FC(F)(F)c1cccc(NC(=S)Nc2cccc(Cl)c2)c1	5.42	5.53
Cc1ccc(C2Nn3c(nnc3-c3ccccc3)SC2C(=O)N2CCCCCC2)cc1 (centres undefined)	5.53	5.41
COc1ccc2c(c1OC)C(=O)N1c3ccccc3N=C(c3ccc([N+](=O)[O-])cc3)CC21 (centres undefined)	< 4.82	< 4.82
CCOc1ccc2nc(N(Cc3cccnc3)C(=O)c3cccs3)sc2c1	5.16	5.16
CCCCCCCCCn1ccc(=N)cc1	6.08	6.33
Cc1ccc(NC(=O)CSc2nc3c(cnn3CCO)c(=O)[nH]2)cc1	< 4.82	5.72
O=C(Nc1ccccc1F)C1c2ccccc2C(=O)N(C2CCCC2)C1c1cccs1 (centres undefined)	5.75	5.59
O=C(NC(c1ccc([N+](=O)[O-])cc1)c1cc(Cl)c2cccnc2c1O)c1cccnc1 (centres undefined)	5.60	5.82
CCS(=O)(=O)c1ccc(OC)c(/N=N/c2ccc(O)c3ncccc23)c1	5.30	< 4.82
Oc1c(C(Nc2ccccn2)c2c(F)cccc2Cl)cc(Cl)c2cccnc12 (centres undefined)	< 4.82	< 4.82
CCCCc1ccc(Nc2cc(C)nc(-n3nc(C)cc3C)n2)cc1	< 4.82	5.33
CCN(CC)CCN1C(=O)c2oc3ccccc3c(=O)c2C1c1cccc(OC)c1 (centres undefined)	6.00	5.98
COc1ccccc1[N+]1=C2CCCCN2C(O)(c2ccc(Cl)cc2)C1 (centres undefined)	< 4.82	5.11
CC(C)(C)C1CCc2onc(C(=O)Nc3cc(Br)ccc3O)c2C1 (centres undefined)	6.14	6.38
Cc1ccc(NC(=O)C2(c3ccc([N+](=O)[O-])cc3)CCCC2)cc1	< 4.82	5.42
COc1cccc(-c2nn(C)c3sc(C(=O)NCCN4CCN(Cc5ccccc5)CC4)cc23)c1	< 4.82	< 4.82
COc1ccc(/C=C2\Oc3c(ccc(O)c3CN3CCCCC3)C2=O)cc1	5.79	6.07
COc1ccc(N2CCN(CC(O)COc3ccc(C)cc3C(C)(C)C)CC2)cc1 (centres undefined)	< 4.82	< 4.82
Cc1c(C)n(CC(O)CNC2CCCCC2C)c2ccccc12 (centres undefined)	6.28	6.46
COc1ccc(NC(=O)CSc2nc(-c3ccccc3Cl)ns2)c(OC)c1	5.26	5.34
C=C(C)CCC(C)N1CCC(N2CCC(C(=O)NCCc3ccccc3)CC2)CC1 (centres undefined)	5.37	< 4.82

From ChEMBL document CHEMBL1154198, “Chemical genetics of Plasmodium falciparum” (Nature, 2010)
